Measurements: patent US6806230B1, “Pyrimidine derivatives and herbicides containing them” (Kumiai Chemical Industry Co., Ltd., priority 1999, dated 2004)

Tests used:
Format in all cases: in vivo
barnyard grass (Eo) [1] = experiment: Test Example 1: herbicidal effects by flooded paddy field treatment; parameters: herbicidal effects, Eo (barnyard grass):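 0-5 growth inhibition grade; 5 = over 90%; 4 = 70-90%; 3 = 50-70%; 2 = 30-50%; 1 = 10-30%; 0 = under 10%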; conditions: for herbicidal effects, Eo (barnyard grass): dose 100 g active ingredient per 10 ares, examined on the 21st day after treatment, standards of Table 44;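 as to Herbicidal effect index, Eo: 0-5 growth inhibition grade; 5 = over 90%; 4 = 70-90%; 3 = 50-70%; 2 = 30-50%; 1 = 10-30%; 0 = under 10%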
How it was run: (§1)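 Herbicidal effect is a graded score assigned 21 days after treatment. Application was one day after sowing into flooded (3 cm) puddled paddy soil, with diluted wettable powder dropped onto the water at 100 g active ingredient per 10 ares. Plants were kept in a greenhouse.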

monochoria (Mo) [2] = experiment: as above; parameters: herbicidal effects, Mo (monochoria):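 0-5 growth inhibition grade; 5 = over 90%; 4 = 70-90%; 3 = 50-70%; 2 = 30-50%; 1 = 10-30%; 0 = under 10%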; conditions: for herbicidal effects, Mo (monochoria): dose 100 g active ingredient per 10 ares, examined on the 21st day after treatment, standards of Table 44
How it was run: as §1

barnyard grass (Ec) [3] = experiment: Test Example 2: herbicidal effects by upland soil treatment; parameters: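 0-5 growth inhibition grade; 5 = over 90%; 4 = 70-90%; 3 = 50-70%; 2 = 30-50%; 1 = 10-30%; 0 = under 10%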; conditions: dose 100 g active ingredient per 10 ares, examined on the 21st day after treatment
How it was run: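 Pre-emergence test: barnyard grass and green foxtail sown in upland soil, then soil surface sprayed with wettable-powder formulation at 100 g active ingredient per 10 ares (100 l per 10 ares). Grown in greenhouse; herbicidal effect scored on a rating scale 21 days after treatment.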

barnyard grass (Ec) [4] = experiment: Test Example 3: herbicidal effects by foliage treatment in upland field; parameters: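 0-5 growth inhibition grade; 5 = over 90%; 4 = 70-90%; 3 = 50-70%; 2 = 30-50%; 1 = 10-30%; 0 = under 10%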; conditions: dose 100 g active ingredient per 10 ares, examined on the 14th day after treatment
Description: In a 80 cm^2 plastic pot, upland soil was filled, and seeds of barnyard grass (Ec) and green foxtail (Se) were sown and cultured in a green house for 2 weeks. Then, a wettable powder prepared in accordance with Formulation Example 1 was diluted with water and applied to the entire foliage from above the plants by means of a small size spray at a rate of 100 l per 10 ares so that the dose of the active ingredient would be 100 g per 10 ares. Thereafter, cultivation was carried out in a green house, and on the 14th day after the treatment, the herbicidal effects were examined in accordance with the standards of Table 44.

barnyard grass (Eo) [5] = experiment: Test Example 4: selectivity for a crop plant by flooded paddy field treatment; parameters: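 0-5 growth inhibition grade; 5 = over 90%; 4 = 70-90%; 3 = 50-70%; 2 = 30-50%; 1 = 10-30%; 0 = under 10%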; conditions: barnyard grass, dose 25 gai/10a, 21st day after treatment, index per Table 44
How it was run: (§2)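 Scores reflect visual herbicidal effect, graded on a standard scale 21 days after water-surface treatment. The product, a wettable powder diluted with water, went on dropwise at 25 g a.i. per 10 ares one day after flooding to 3 cm. Weeds grew from sown seed and rice was transplanted at second-leaf stage.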

monochoria (Mo) [6] = experiment: as above; parameters: scale not given here; conditions: monochoria, dose 25 gai/10a, 21st day after treatment, index per Table 44
How it was run: as §2

rice (Or) = experiment: as above; parameters: scale not given here; conditions: rice transplanted at second leaf stage, dose 25 gai/10a, 21st day after treatment, index per Table 44
How it was run: as §2

[7] = dose 100 gai/10a, examined on 21st day after treatment, index 0-5 per Table 44
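For Herbicidal effect index, Mo in this document: 0-5 growth inhibition grade; 5 = over 90%; 4 = 70-90%; 3 = 50-70%; 2 = 30-50%; 1 = 10-30%; 0 = under 10%.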

SMILES	herbicidal effects, Eo (barnyard grass) (barnyard grass (Eo) [1])	herbicidal effects, Mo (monochoria) (monochoria (Mo) [2])	Ec (herbicidal effects, index) (barnyard grass (Ec) [3])	Ec (herbicidal effects, index) (barnyard grass (Ec) [4])	Eo (herbicidal effect index) (barnyard grass (Eo) [5])	Mo (herbicidal effect index) (monochoria (Mo) [6])	Or (herbicidal effect index on crop) (rice (Or))	Herbicidal effect index, Eo (barnyard grass (Eo) [1]; [7])	Herbicidal effect index, Mo (monochoria (Mo) [2]; [7])
CSC(C)C(c1cncnc1C(F)(F)F)N(C)C(=O)Cc1ccc(F)cc1 (mixture of isomers) [1-416]	5	5	5	5	5	5	1		
CC(=O)c1ncncc1C(C(C)C)N(C)C(=O)C(C)c1ccc(Cl)cc1 (mixture of isomers) [1-530]	5	5	5	4	5	5	1		
COCc1ncncc1C(C(C)C)N(C)C(=O)C(C)c1ccc(Cl)cc1 (mixture of isomers) [1-591]	5	5	5	4	5	5	1		
CCC(C)C(c1cncnc1C(F)(F)F)N(C)C(=O)Cc1ccc(Cl)s1 (mixture of isomers) [2-57]	5	5	5	5	5	5	1		
CCC(C)C(c1cncnc1C(F)(F)F)N(C)C(=O)Cc1ccc(Cl)cc1F (mixture of isomers) [Compound 1-251]	5	5	5	4	5	5	1		
CN(C(=O)Cc1ccccc1)C(c1ccc(Cl)cc1)c1cncnc1C(F)(F)F (racemic) [1-221]	5	5		4	5	5	1		
CON(C(=O)Cc1ccc(F)cc1)C(c1cncnc1C(F)(F)F)C(C)C (racemic) [1-333]	5	5	5	4	5	5	1		
CC(C)CC(c1cncnc1C(F)(F)F)N(C)C(=O)Cc1cccc(F)c1 (racemic) [1-334]	5	5	5	4	5	5	0		
COc1ncncc1C(C(C)C)N(C)C(=O)Cc1ccccc1 (racemic) [1-401]	5	5	5	5	5	5	1		
COc1ncncc1C(C(C)C)N(C)C(=O)Cc1ccc(C)cc1 (racemic) [1-404]	5	5	5	5	5	5	1		
Cc1ccc(CC(=O)N(C)C(c2cncnc2C(F)(F)F)C2(C)CC2)cc1 (racemic) [1-412]	5	5	5	4	5	5	1		
CC(C)C(c1cncnc1C(F)(F)F)N(C)C(=O)Cc1ccc(F)c(F)c1F (racemic) [1-417]	5	5	5	4	5	5	1		
CCC(c1cncnc1C(C)C)N(C)C(=O)Cc1ccccc1 (racemic) [1-436]	5	5	5	4	5	5	1		
CN(C(=O)Cc1ccc(F)cc1)C(c1ccsc1)c1cncnc1C(F)(F)F (racemic) [1-441]	5	5	5	4	5	5	1		
COc1ccc(C(c2cncnc2C(F)(F)F)N(C)C(=O)Cc2ccc(Cl)cc2)cc1 (racemic) [1-486]	5	5		4	5	5	1		
CON=C(C)C(c1cncnc1C(C)C)N(C)C(=O)Cc1ccc(F)cc1 (racemic) [1-563]	5	5	5	5					
CCc1ncncc1C(N(C)C(=O)Cc1ccc(F)cc1)C(C)(C)C (racemic) [1-565]	5	5	5	5					
CCC(c1cncnc1C(C)(C)C)N(C)C(=O)Cc1ccc(F)cc1 (racemic) [1-571]	5	4	5	4					
COCc1ncncc1C(C(C)C)N(C)C(=O)Cc1ccc(Cl)cc1 (racemic) [1-589]	5	5	5	4					
CC(C)c1ncncc1C(C(C)C)N(C)C(=O)Cc1cccs1 (racemic) [2-23]	5	5	5	4					
CC(C)C(c1cncnc1C(F)(F)F)N(C)C(=O)COc1cc(C(F)(F)F)nn1C (racemic) [2-46]	5	5	5	4					
CC(C)CC(c1cncnc1C(F)(F)F)N(C)C(=O)Cc1cccs1 (racemic) [2-51]	5	5	5	4					
Cc1ccc(CC(=O)N(C)C(CC(C)C)c2cncnc2C(F)(F)F)s1 (racemic) [2-53]	5	5	5	4					
CCOCN(C(=O)Cc1ccc(C)cc1)C(c1cncnc1C(F)(F)F)C(C)C (racemic) [Compound 1-107]				4	5	5	0	5	5
CC(C)c1ncncc1C(C(C)C)N(C)C(=O)Cc1cccc(F)c1 (racemic) [Compound 1-270]	5	5	5	4					
COC(=O)c1ncncc1C(C(C)C)N(C)C(=O)C(C)c1ccc(Cl)cc1 (single isomer, unassigned) [Compound 1-592, 5-(1-{[2-(4-chlorophenyl)-propionyl]methylamino}-2-methylpropyl)-pyrimidine-4-carboxylic acid methyl ester]	5	5	5	5					
